Structures can show the parent of a compound that is named as a salt. Where two headings read alike, the source gives them in different places.
Key:
Toxicity (LD50) = conditions: in vivo
[1] = tested on: Reserpine-induced hypothermia; experiment: (A) Reserpine-induced hypothermia in mice (antidepressive action); type: in vivo; conditions: Mus musculus, read-out: Minimal dosage which leads to normalization of body temperature (A)
From the text: The minimal dosage is given which leads to normalization of body temperature measured rectally.

spontaneous motility = experiment: (C) Locomotive activity (spontaneous motility), photoelectric systems; type: in vivo; conditions: mice; for Spontaneous motility (C), M = methaqualone: 40 m/g i.g.
Method: (C) The locomotive activity reflects the stimulating or depressive effects on the C.N. system. The spontaneous motility (impulses per minute) was measured in mice by means of photoelectric systems according to Irwin (Rev. Can. Biol. 20, 239 (1961). K in the margin=control, (twice), M=methaqualone (40 m/g i.g.) and S=substance.

[2] = tested on: hexobarbital sleeping period; experiment: (D) Hexobarbital sleeping period (central sedating or stimulating effects); type: in vivo; conditions: mice, 82.5 mg/kg hexobarbital IV
Method: (D) The lengthening of the sleeping period is a common in vivo method for the determination of central sedating or stimulating effects. The test animals are mice subsequent to intravenous (IV) injection with 82.5 mg/kg hexobarbital. The influence on the sleeping period under the trial substance is given in % for control purposes.

[3] = (E) Anticholinergic action measured as mydriasis; type: in vivo, mice; conditions: mouse, in vivo, po
From the text: (§1) (E) Anticholinergic action measured as mydriasis (mice).

[4] = tested on: blood-pressure effect of noradrenaline and adrenaline; experiment: (F) Autonomous test model after IV catecholamine administration (potentiation of blood-pressure effect of noradrenaline and adrenaline); type: in vivo, dogs; conditions: for Potentiation of catecholamine blood-pressure effect (F): dogs, result in words
From the text: (F) Autonomous test model in dogs after IV catecholamine administration.

mydriasis = experiment: (E) Anticholinergic action measured as mydriasis; type: in vivo, mice; conditions: mice
From the text: as §1

gastric secretion = experiment: Shay preparation, gastric secretion; type: in vivo; conditions: po
[5] = 10 mg/kg s.c., control K 12 (4A), 13 (4B)

| Structure (SMILES) | LD50 (Toxicity (LD50); po, i.g.) [mg/kg] | minimal effective dose ([1]; sc) [mg/kg] | minimal effective dose ([1]; po, i.g.) [mg/kg] | Anticholinergic action (mydriasis) (E) (mydriasis; up to 75 mg/kg s.c.) | Potentiation of catecholamine blood-pressure effect (F) [4] | other results |
| --- | --- | --- | --- | --- | --- | --- |
| CN(C)CCC=C1c2ccccc2CCc2ccccc21 [Amitryptyline, reference compound] | 200 | 5 |  |  |  | LD50 (Toxicity (LD50); sc): 100 mg/kg; Spontaneous motility (C), S = substance (spontaneous motility; 5 mg/kg s.c., control K 17): 4 impulses per minute; Influence on the sleeping period (D) ([2]; 5 mg/kg s.c.): +103%; ED50 [3]: 23 mg/kg; ED50 ([4]; Canis lupus familiaris, iv, read-out: Potentiation of catecholamine blood-pressure effect ED50 (F)): 1 mg/kg |
| CCN(CC)CCOc1cc(=O)c2ccccc2c2ccccc12 [Example 1, 5-(2-Diethylaminoethoxy)-7H-dibenzo(a,c)cyclohepten-5-one(7).hydrochloride] | 300 | 5 | 20 | no effect | no effect | Spontaneous motility (C), S = substance (spontaneous motility; 5 mg/kg s.c., control K 17): 20 impulses per minute; Influence on the sleeping period (D) ([2]; 5 mg/kg s.c.): -42%; inhibition at 25 mg/kg (gastric secretion; Shay preparation, 25 mg/kg i.g.): 56% |
| CN(C)CCCc1cc(=O)c2ccccc2c2ccccc12 [Example 4A, 5-(3-Dimethylaminopropyl)-7H-dibenzo(a,c)cyclohepten-5-one(7)] | 200 | 5 | 20 | no effect | no effect | Spontaneous motility (C), S = substance (spontaneous motility; [5]): 12 impulses per minute |
| CCN(CC)CCCc1cc(=O)c2ccccc2c2ccccc12 [Example 4B, 5-(3-Diethylaminopropyl)-7H-dibenzo(a,c)cyclohepten-5-one(7).oxalate] | 200 | 10 | 30 | no effect | no effect | Spontaneous motility (C), S = substance (spontaneous motility; [5]): 21 impulses per minute; Influence on the sleeping period (D) ([2]; 10 mg/kg s.c.): +11% |
| CNCCCc1cc(=O)c2ccccc2c2ccccc12 [Example 4C, 5-(3-methylaminopropyl)-7H-dibenzo(a,c)cyclohepten-5-one(7).oxalate] | 800 |  | 75 |  | no effect | Spontaneous motility (C), S = substance (spontaneous motility; 150 mg/kg i.g., control K 15): 19 impulses per minute; Anticholinergic action (mydriasis) (E) (mydriasis; up to 200 mg/kg i.g.): no effect |
| Cc1ccccc1-n1c(C)nc2ccccc2c1=O [M] |  |  |  |  |  | Spontaneous motility (C), M = methaqualone (spontaneous motility; Amitryptyline column, control K 20): 2 impulses per minute; Spontaneous motility (C), M = methaqualone (spontaneous motility; Example 1 column, control K 20): 2 impulses per minute; Spontaneous motility (C), M = methaqualone (spontaneous motility; Example 4A column, control K 16): 3 impulses per minute; Spontaneous motility (C), M = methaqualone (spontaneous motility; Example 4B column, control K 20): 2 impulses per minute; Spontaneous motility (C), M = methaqualone (spontaneous motility; Example 4C column, control K 19): 6 impulses per minute |
| CN/C(=N/CCSCc1nc[nH]c1C)NC#N [cimetidine, reference compound] |  |  |  |  |  | inhibition at 80 mg/kg (gastric secretion; read-out: Inhibition of gastric secretion): 45% |
